Target: T1, porcine pancreatic lipase (Sus scrofa, UniProt P00591)
T1 construct: purchased U.S. Biochemical Corporation
T1 sequence (P00591 1-450): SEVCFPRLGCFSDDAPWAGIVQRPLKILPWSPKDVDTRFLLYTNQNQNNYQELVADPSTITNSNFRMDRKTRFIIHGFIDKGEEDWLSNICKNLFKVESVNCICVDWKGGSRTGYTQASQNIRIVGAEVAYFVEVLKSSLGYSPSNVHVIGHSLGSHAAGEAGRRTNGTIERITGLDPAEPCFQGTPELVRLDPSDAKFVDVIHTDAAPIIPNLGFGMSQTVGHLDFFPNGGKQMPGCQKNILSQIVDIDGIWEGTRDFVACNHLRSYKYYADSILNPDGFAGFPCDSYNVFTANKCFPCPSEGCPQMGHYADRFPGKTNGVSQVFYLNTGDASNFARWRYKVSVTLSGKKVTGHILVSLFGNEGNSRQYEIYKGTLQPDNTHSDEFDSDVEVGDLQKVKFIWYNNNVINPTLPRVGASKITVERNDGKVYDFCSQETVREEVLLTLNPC
Test: in vitro digestibility (lipase hydrolysis) screening test
Format: biochemical
Details: in 10 minutes with this enzyme system, 37° C., pH 7.1 phosphate buffer; triglyceride control
Description: This example outlines the procedure for estimating the in vitro digestibility of the polyvinyl esters of this invention.
Buffer: A pH 7.1 phosphate buffer is prepared by dissolving 6.8 g. KH2 PO4 in 1 L. of millipore filtered water (to yield 0.05M phosphate). Fifty mg. Ca(NO3)2 and 5.0 g. cholic acid (Na salt, an ox bile isolate from Sigma) are added to give 300 microM Ca^++ and 0.5% cholic acid in 0.05M phosphate. The pH is adjusted to approximately 7.1 with solid NaOH. Several drops of Baker "Resi-analyzed" toluene are added to prevent bacterial growth during storage at 3-5° C.
Lipase: About 15 mg./mL commercial porcine pancreatic lipase from U.S. Biochemical Corporation is dissolved in buffer.
(The proper concentration may be approximated by doubling the molecular weight of the lipid in question, dividing by 10, and diluting to the mark; this yields about 200 nanomoles per microliter.) This preparation affords the substrate to be used in the hydrolysis reactions. Fatty acids and glyceride standards from Nu Chek or Sigma are prepared for elution on TLC plates (prewashed with 1:1 chloroform/methanol) by diluting the substrate solution with 10:1 toluene (1 part substrate plus 9 parts toluene) in septum vials. […]

SMILES: CCCCCCCC/C=C\CCCCCCCC(=O)OCC(COC(=O)CCCCCCC/C=C\CCCCCCCC)OC(=O)CCCCCCC/C=C\CCCCCCCC [triolein]
- hydrolysis by pancreatic lipase (in vitro digestibility): substantially hydrolyzed

— US5115017A, “Polyvinyl oleate as a fat replacement” (Nabisco Brands, Inc., priority 1989, dated 1992)
